What was measured:
[1] = test system: abdominal sebaceous gland pad organs; test: Inhibition of testosterone-stimulated abdominal sebaceous gland pad weight increase in castrated male gerbils (Table III); type: in vivo
Description: The effect of the (E) form of the compound of formula I on sebaceous glands in mammals was further determined using gerbils, according to the following procedure. Male gerbils were castrated at 8 weeks of age and one week after surgery were treated with 5 ug free testosterone and 1,2,3,4-tetrahydro-1,1,4,4-tetramethyl-6-[(E)-α-methylstyryl]naphthalene topically in acetone on the abdominal sebaceous gland pad organs. Animals were treated for 14 days and the response was measured by weight changes in these organs removed at autopsy. Separate groups of gerbils served as vehicle controls and testosterone alone groups. Activity was measured by inhibition of the increase in weight which occurs in response to stimulation with testosterone.

papilloma = conditions: cited from earlier work
[2] = test system: sebaceous glands (flank organs); test: Inhibition of testosterone propionate-stimulated flank organ weight increase in castrated male hamsters (Table II); type: in vivo
Description: The effect of the (E) form of the compound of formula I on sebaceous glands in mammals was further determined using hamsters, according to the following procedure. […] Animals were treated for 14 days and the response was measured by weight changes in flank organs removed at autopsy. Separate groups of hamsters served as vehicle controls and testosterone alone groups. Activity was measured by inhibition of the increase in weight which occurs in response to stimulation with testosterone propionate.

[3] = General tolerability statement; type: in vivo; conditions: pharmacologically suitable dosages
[4] = Skin irritation, topical application to the ears; type: in vivo, Charles River CD-1 mice; conditions: topically in 25 μl/day acetone, doses up to 100 μg/day, 7 consecutive days
Description: 1,2,3,4-tetrahydro-1,1,4,4-tetramethyl-6-[(E)-α-methylstyryl]naphthalene was applied topically to the ears of 21-day-old male Charles River CD-1 mice for 7 consecutive days in 25 μl/day acetone. During treatment mice are observed for development of erythema on the ears, and uniform skin punches are taken at autopsy on day 8. Wet and dry weights of the skin samples were determined and compared to weights from vehicle-treated control animals. Increases in fluid content of the skin punches served as a measure of edema when irritation and inflammation had occurred.

sebum secretion = test: Inhibition of testosterone propionate-stimulated sebum secretion in castrated male rats (Table I); type: in vivo; conditions: for Mean ± S.E. "Sebum" / % Inhibition of testosterone-stimulated increase in "sebum": 14 days
Description: The effect of the (E) form of the compound of formula I on sebum secretion in mammals, such as rats, was determined according to the following procedure. Male rats weighing about 50-60 g. were castrated at the age of 21-22 days. One week after surgery, the rats were washed in a detergent solution to remove "sebum" which was secreted prior to the test period. One group of rats were treated only with the carrier vehicles employed. Another group of rats received only testosterone propionate in sesame oil, 100 ug/0.2 ml/rat/day […]. Other groups of rats were given testosterone propionate in sesame oil (100 ug/0.2 ml/rat/day subcutaneously) and 1,2,3,4-tetrahydro-1,1,4,4-tetramethyl-6-[(E)-α-methylstyryl]naphthalene, with different amounts of 1,2,3,4-tetrahydro-1,1,4,4-tetramethyl-6[(E)-α-methylstyryl]naphthalene being administered to each of the other groups orally in 0.2 ml/rat/day propylene glycol. The rats were treated with the compounds for 14 days. On the 15th day total body immersion in a fixed volume of acetone with mixing for two minutes removed surface "sebum" from skin and fur. An aliquot of the solvent bath was dried and the solid residue was measured gravimetrically. Inhibition of the testosterone-stimulated increase in "sebum" over solely testosterone propionate stimulated rats was used as the parameter of response.

Hypervitaminosis A test = test: Hypervitaminosis A test; design: species or system mice; conditions: mouse, in vivo
Description: A hypervitaminosis A test was carried out on mice weighing 25-27 g. which received i.p. injections of 1,2,3,4-tetrahydro-1,1,4,4-tetramethyl-6-[(E)-α-methylstyryl]naphthalene in arachis oil over a 14 day period. Hypervitaminosis A is defined as being that condition of the animals where the symptoms (weight loss, skin desquamtion, loss of hair, bone fractures of extremities) added up to at least 3, c.f. W. Bollag, Cancer, 1974, 10, 731.

[5] = Teratogenicity tests, for fetal abnormalities; type: in vivo, Charles River CD rats; conditions: 10, 50 or 150 mg/kg daily orally, gestation days 8 and 9
Description: In order to further determine the safety of the (E) form of the compound of formula I teratogenicity tests, for fetal abnormalities, were carried out in rats according to the following procedure. 1,2,3,4-tetrahydro-1,1,4,4-tetramethyl-6-[(E)-α-methylstyryl]naphthalene was provided to Charles River CD rats on gestation days 8 and 9 using a daily dose of 10 , 50 or 150 mg/kg of this substance dissolved or suspended in a polyethelene glycol formulation containing traces of antioxidants (ascorbyl palmitate and butylated hydroxyanisole). The compound was administered orally at a constant volume of 5 ml/kg. The rats were then sacrificed on gestation day 20 and examined.

C/C(=C\c1ccccc1)c1ccc2c(c1)C(C)(C)CCC2(C)C [1,2,3,4-tetrahydro-1,1,4,4-tetramethyl-6-[(E)-α-methylstyryl]naphthalene]
% Inhibition of testosterone-stimulated increase in sebaceous gland pad weight ([1]; 1 ug topically + testosterone 5 ug, 14 days, 10 gerbils): 54% | Mean ± S.E. Sebaceous Gland Pad ([1]; 1 ug topically + testosterone 5 ug, 14 days, 10 gerbils, p<.01 vs testosterone alone): 45.6 ± 6.9 mg | inhibition of sebaceous gland pad weight ([1]; 1.0 ug/animal/day p.o. (so in the source) with 5 ug testosterone topically, vs testosterone alone): ~54% | effect on papilloma growth (papilloma; Loeliger et al., Eur. J. Med. Chem., 15, 9 (1980)): no effect on papilloma growth | papilloma size (papilloma; after intraperitoneal administration, Loeliger et al. (1980)): increase in papilloma size | % Inhibition of testosterone-stimulated increase in flank organ weight ([2]; 0.5 μg topically + T.P. 5 ug, 14 days, 9 hamsters): 38% | Mean ± S.E. Flank Organ ([2]; 0.5 μg topically + T.P. 5 ug, 14 days, 9 hamsters, p<.001 vs T.P. alone): 26.0 ± 1.6 mg | inhibition of flank organ weight increase ([2]; 0.5 ug/animal/day topically with 5 μg T.P., vs testosterone alone): ~38% | tolerability [3]: well tolerated without toxic symptoms | adverse effects (skin irritation: erythema, edema of ear skin punches) [4]: not to have adverse effects | Mean ± S.E. "Sebum" (sebum secretion; 0.5 ug/rat/day p.o. + T.P. 100 ug/rat/day s.c., 8 rats, NS vs T.P. alone): 25.1 ± 1.9 ug/100 ul | Mean ± S.E. "Sebum" (sebum secretion; 1 ug/rat/day p.o. + T.P. 100 ug/rat/day s.c., 8 rats, NS vs T.P. alone): 26.8 ± 1.6 ug/100 ul | Mean ± S.E. "Sebum" (sebum secretion; 2 ug/rat/day p.o. + T.P. 100 ug/rat/day s.c., 8 rats, NS vs T.P. alone): 22.1 ± 1.2 ug/100 ul | Mean ± S.E. "Sebum" (sebum secretion; 4 ug/rat/day p.o. + T.P. 100 ug/rat/day s.c., 8 rats, NS vs T.P. alone): 21.6 ± 1.6 ug/100 ul | % Inhibition of testosterone-stimulated increase in "sebum" (sebum secretion; 10 ug/rat/day p.o. + T.P. 100 ug/rat/day s.c.): 61% | Mean ± S.E. "Sebum" (sebum secretion; 10 ug/rat/day p.o. + T.P. 100 ug/rat/day s.c., 9 rats, p<.01 vs T.P. alone): 23.4 ± 1.6 ug/100 ul | % Inhibition of testosterone-stimulated increase in "sebum" (sebum secretion; 20 ug/rat/day p.o. + T.P. 100 ug/rat/day s.c.): 70% | Mean ± S.E. "Sebum" (sebum secretion; 20 ug/rat/day p.o. + T.P. 100 ug/rat/day s.c., 9 rats, p<.01 vs T.P. alone): 22.4 ± 1.6 ug/100 ul | % Inhibition of testosterone-stimulated increase in "sebum" (sebum secretion; 40 ug/rat/day p.o. + T.P. 100 ug/rat/day s.c.): 73% | Mean ± S.E. "Sebum" (sebum secretion; 40 ug/rat/day p.o. + T.P. 100 ug/rat/day s.c., 9 rats, p<.001 vs T.P. alone): 22.1 ± 0.9 ug/100 ul | % Inhibition of testosterone-stimulated increase in "sebum" (sebum secretion; 100 ug/rat/day p.o. + T.P. 100 ug/rat/day s.c.): 93% | Mean ± S.E. "Sebum" (sebum secretion; 100 ug/rat/day p.o. + T.P. 100 ug/rat/day s.c., 9 rats, p<.001 vs T.P. alone): 19.9 ± 1.2 ug/100 ul | sebum secretion (in words) (sebum secretion; 100 ug/rat/day p.o. + T.P. 100 ug/rat/day s.c., compared to T.P. alone): decreased to virtually normal level | undesired side effects such as hypervitaminosis (Hypervitaminosis A test): no undesired side effects such as hypervitaminosis | NOAEL at 336 h (Hypervitaminosis A test; ip, i.p. in arachis oil, 14 day period, hypervitaminosis A = symptoms adding up to at least 3, read-out: dosage not resulting in hypervitaminosis A (tested up to)): > 400 mg/kg | external malformations ([5]; 187 fetuses): no external malformations were recorded in any of the 187 fetuses | absorption rate ([5]; examined day 20): no adverse effects | fetal weight ([5]; examined day 20): no adverse effects | maternal body weights ([5]; examined day 20): no adverse effects

C[C@]12CC[C@H]3[C@@H](CCC4=CC(=O)CC[C@@]43C)[C@@H]1CC[C@@H]2O [Testosterone, testosterone, reference compound]
Mean ± S.E. Sebaceous Gland Pad ([1]; Testosterone alone, 5 ug, 14 days, 10 gerbils): 72.5 ± 5.8 mg

CCC(=O)O[C@H]1CC[C@H]2[C@@H]3CCC4=CC(=O)CC[C@]4(C)[C@H]3CC[C@]12C [T.P., testosterone propionate, reference compound]
Mean ± S.E. Flank Organ ([2]; T.P. alone, 5 ug, 14 days, 8 hamsters): 33.8 ± 2.0 mg | Mean ± S.E. "Sebum" (sebum secretion; 100 ug/rat/day s.c. T.P. alone (0 ug compound), 8 rats, first experiment): 25.1 ± 1.4 ug/100 ul | Mean ± S.E. "Sebum" (sebum secretion; 100 ug/rat/day s.c. T.P. alone (0 ug compound), 9 rats, second experiment): 30.1 ± 1.0 ug/100 ul
